Experimental findings from patent US8389557B2, “Triazole derivatives useful as Axl inhibitors” (Rigel Pharmaceuticals, Inc., priority 2005, dated 2013) are described below.

Each structure is given as a SMILES string.

As usually defined, the IC50 is the point on the concentration scale where inhibition reaches its midpoint. Read a low IC50 as inhibition by little substance.

One experiment has as its target T1, Axl (Homo sapiens, UniProt P30530).
T1 construct: endogenous in cells; host or cells: HeLa cells
T1 sequence (P30530 26-894): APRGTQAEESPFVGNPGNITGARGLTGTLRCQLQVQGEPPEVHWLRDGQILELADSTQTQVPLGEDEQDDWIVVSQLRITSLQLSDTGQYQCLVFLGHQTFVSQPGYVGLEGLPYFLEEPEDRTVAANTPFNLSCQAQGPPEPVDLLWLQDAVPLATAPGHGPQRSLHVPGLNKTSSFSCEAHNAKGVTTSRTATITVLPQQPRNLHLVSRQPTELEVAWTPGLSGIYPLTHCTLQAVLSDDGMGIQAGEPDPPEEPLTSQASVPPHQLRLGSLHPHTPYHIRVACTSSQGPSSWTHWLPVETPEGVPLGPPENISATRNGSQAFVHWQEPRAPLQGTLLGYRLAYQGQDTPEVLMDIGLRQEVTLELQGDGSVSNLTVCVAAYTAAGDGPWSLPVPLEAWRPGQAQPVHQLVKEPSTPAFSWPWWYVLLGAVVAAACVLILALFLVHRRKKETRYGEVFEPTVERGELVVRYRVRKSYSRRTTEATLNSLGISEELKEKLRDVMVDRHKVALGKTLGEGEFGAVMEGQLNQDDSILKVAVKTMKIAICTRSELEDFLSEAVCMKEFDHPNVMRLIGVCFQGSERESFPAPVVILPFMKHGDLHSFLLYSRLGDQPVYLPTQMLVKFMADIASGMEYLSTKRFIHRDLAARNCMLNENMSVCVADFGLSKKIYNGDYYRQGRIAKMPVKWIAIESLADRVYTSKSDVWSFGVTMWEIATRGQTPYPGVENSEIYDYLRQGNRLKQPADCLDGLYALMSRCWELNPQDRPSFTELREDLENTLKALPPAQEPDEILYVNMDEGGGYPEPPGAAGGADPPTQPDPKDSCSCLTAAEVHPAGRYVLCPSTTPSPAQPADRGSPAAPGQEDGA
Briefly: Phospho-Akt in-cell Western assay (inhibition of Axl activity). The settings on record: Table 2; Hela cells, Axl antibody cross-linking stimulation, phospho-Akt chemiluminescence. Type of experiment: cell-based. As to the method: The compounds of the invention were tested in the following assay for their ability to inhibit Axl activity.
Phospho-Akt in-Cell Western Assay
• Cell culture plate: 96 well assay plate (Corning 3610), white, clear bottom, tissue-culture treated. • Cells: Hela cells. • Starvation medium: For Axl stimulation: 0.5% FCS (fetal calf serum) in DMEM, plus Axl/Fc (extracellular domain of AXL fused to immunoglobulin Fc region) (R&D, 154-AL) 500 ng/mL. • For EGF (epidermal growth factor) stimulation: 0.5% FCS in DMEM (Dulbecco's modified Eagles medium). • Poly-L-Lysine 0.01% solution (the working solution): 10 μg/ml, dilute In PBS (phosphate buffered saline). • Axl antibody cross-linking: • 1st: Mouse anti-Axl (R&D, MAB154). • 2nd: Biotin-SP-conjugated AffiniPure goat anti-mouse IgG (H+L) (Jackson ImmunoResearch #115-065-003). • Fixing buffer: 4% formaldehyde in PBS. • Wash buffer: 0.1% TritonX-100 in PBS. • Quenching buffer: 3% H2O2, 0.1% Azide in wash buffer, Azide and hydrogen peroxide (H2O2) are added fresh. • Blocking buffer: 5% BSA in TBST (tris buffered saline plus 0.1% Tween 20). • Primary antibody: Rabbit anti-human Phospho-Akt antibody (Cell Signaling 9271): 1×250 diluted in blocking buffer. • Secondary antibody: HRP (horse radish peroxidase)-conjugated Goat anti-Rabbit secondary, stock solution: Jackson ImmunoResearch (Goat anti-Rabbit HRP, #111-035-144) 1:1 diluted in glycerol, store at −20° C. The working solution: 1×2000 dilution of stock in blocking buffer. • Chemiluminescent working solution (Pierce, 37030): SuperSignal ELISA (enzyme linked immunosorbant assay) Pico Chemiluminescent substrate. • Crystal Violet solution: Stock: 2.5% Crystal violet in methanol, filtered and kept at ambient temperature. The working solution: dilute the stock 1:20 with PBS immediately before use. • 10% SDS: working solution: 5% SDS (sodium dodecylsulfate), diluted in PBS Methods: Day 1:
A 96 well TC (tissue culture treated) plate was coated with 10 μg/mL poly-L-Lysine at 37° C. for 30 min, washed twice with PBS, and air-dried for 5 minutes before cells were added. Hela cells were seeded at 10,000 cells/well and the cells were starved in 100 μL starvation medium containing Axl/Fc for 24 hrs.
The cells were pre-treated with test compounds by adding 100 μL of 2× test compound to the starvation medium on the cells. The cells were incubated at 37° C. for 1 hr before stimulation.
The cells were stimulated by Axl-antibody cross-linking as follows: A 5×1st/2nd Axl antibody mixture was made (37.5 μg/mL 1st/100 μg/mL 2nd) in starvation medium and nutated at 4° C. with thorough mixing for 1-2 hours for clustering. The resulting mix was warmed to 37° C. 50 μL of 5× Axl 1st/2nd of antibody cluster was added to the cells and the cells were incubated at 37° C. for 5 min.
After 5 minutes stimulation, the plate was flicked to remove medium and the plate was tapped onto paper towels. Formaldehyde (4.0% in PBS, 100 μL) was added to fix the cells and the cells were incubated at ambient temperature for 20 min without shaking.
The cells were washed with a plate washer buffer to remove the formaldehyde solution. The plate was flicked to removed excess wash buffer and tapped onto paper towels. Quenching buffer (100 μL) was added to each well and the cells were incubated at ambient temperature for 20 minutes without shaking.
The cells were washed with a plate washer buffer to remove the quenching buffer. Blocking buffer (100 μL) was added and the cells were incubated at ambient temperature for at least an hour with gentle shaking.
The cells were washed with a plate washer buffer and diluted primary antibody (50 μL) was added to each well (blocking buffer was added to the negative control wells instead). The plates were incubated overnight at 4° C. with gentle shaking.
The wash buffer was removed, diluted secondary antibody (100 μL) was added, and the cells were incubated at ambient temperature for 1 hour with gentle shaking. […]
`Nc1nc(Nc2ccc(N3CCOCC3)cc2)n(C(=O)c2cccc(Cl)c2)n1` [compound 75, 3-amino-1-(3-(chloro)phenyl)carbonyl-5-(4-(morpholin-4-yl)phenylamino)-1H-1,2,4-triazole] gave an IC50 above 20 µM.

The same experiment, now with this note: Table 3; Hela cells, Axl antibody cross-linking stimulation, phospho-Akt chemiluminescence.
Regarding `CC(C)Oc1ccc(Nc2nc(N)n(C(=O)c3ccc4c(c3)NC(=O)C(C)(C)O4)n2)cc1` [compound 65, 5-amino-1-(2,2-dimethyl-2H-benzo[b][1,4]oxazin-3(4H)-on-6-yl)carbonyl-3-(4-(iso-propoxy)phenyl)amino-1H-1,2,4-triazole], the IC50 fell in the range of 1 to 10 µM. Same read-out and setting: in the case of `CC1(C)Oc2ccc(C(=O)n3nc(Nc4ccc(N5CCOCC5)cc4)nc3N)cc2NC1=O` [compound 68, 5-amino-1-(2,2-dimethyl-2H-benzo[b][1,4]oxazin-3(4H)-on-6-yl)carbonyl-3-(4-(morpholin-4-yl)phenylamino)-1H-1,2,4-triazole] it was 1 to 10 µM; in that of `CC1(C)Oc2ccc(C(=O)n3nc(Nc4ccc(OCCN5CCCCC5)cc4)nc3N)cc2NC1=O` [compound 78, 5-amino-1-(2,2-dimethyl-2H-benzo[b][1,4]oxazin-3(4H)-on-6-yl)carbonyl-3-[4-[2-(piperidin-1-yl)ethoxy]phenylamino]-1H-1,2,4-triazole], below 1 µM.

Compound `CN(C)CCOc1ccc(Nc2nc(N)n(C(=O)c3ccc4c(c3)NC(=O)C(C)(C)O4)n2)cc1` [compound 86, 5-amino-3-[4-[2-(dimethylamino)ethoxy]phenylamino]-1-(2,2-dimethyl-2H-benzo[b][1,4]oxazin-3(4H)-on-6-yl)carbonyl-1H-1,2,4-triazole] displayed an IC50 below 1 µM.

Staying with this experiment, now noted: Table 4; Hela cells, Axl antibody cross-linking stimulation, phospho-Akt chemiluminescence.
As for `CC(C)Oc1ccc(Nc2nc(N)nn2C(=O)c2ccc3c(c2)NC(=O)C(C)(C)O3)cc1` [compound 66, 3-amino-1-(2,2-dimethyl-2H-benzo[b][1,4]oxazin-3(4H)-on-6-yl)carbonyl-5-(4-(iso-propoxy)phenyl)amino-1H-1,2,4-triazole], the IC50 is 1 to 10 µM. In turn, `CC1(C)Oc2ccc(C(=O)n3nc(N)nc3Nc3ccc(N4CCOCC4)cc3)cc2NC1=O` [compound 69, 3-amino-1-(2,2-dimethyl-2H-benzo[b][1,4]oxazin-3(4H)-on-6-yl)carbonyl-5-(4-(morpholin-4-yl)phenylamino)-1H-1,2,4-triazole] yielded an IC50 of 1 to 10 µM.

The experiment is the same for the next values; noted with them: inhibition of Axl activity, Table 1.
`Nc1nc(Nc2ccc(N3CCOCC3)cc2)nn1C(=O)c1cccc(O)c1` [compound 67, 5-amino-1-(3-(hydroxy)phenyl)carbonyl-3-(4-(morpholin-4-yl)phenylamino)-1H-1,2,4-triazole] had an IC50 of 1 to 10 µM. Turning to `Nc1nc(Nc2ccc(N3CCOCC3)cc2)nn1C(=O)c1ccc(S(N)(=O)=O)cc1` [compound 70, 5-amino-1-(4-(aminosulfonyl)phenyl)carbonyl-3-(4-(morpholin-4-yl)phenylamino)-1H-1,2,4-triazole], the IC50 is above 20 µM. Same read-out and setting: in the case of `CC(C)Oc1ccc(Nc2nc(N)n(C(=O)c3cccc([N+](=O)[O-])c3)n2)cc1` [compound 71, 5-amino-3-[4-(iso-propoxy)phenylamino]-1-(3-(nitro)phenyl)carbonyl-1H-1,2,4-triazole] it was 1 to 10 µM. On the same count and under the same terms, in the case of `Nc1nc(Nc2ccc(N3CCOCC3)cc2)nn1C(=O)c1cccc([N+](=O)[O-])c1` [compound 72, 5-amino-3-(4-(morpholin-4-yl)phenylamino)-1-(3-(nitro)phenyl)carbonyl-1H-1,2,4-triazole] it was 1 to 10 µM. The same measure, in the same setting: for `CC(C)Oc1ccc(Nc2nc(N)n(C(=O)c3cccc(O)c3)n2)cc1` [compound 73, 5-amino-1-(3-(hydroxy)phenyl)carbonyl-3-[4-(iso-propoxy)phenylamino]-1H-1,2,4-triazole] the value was 1 to 10 µM. `Nc1nc(Nc2ccc(N3CCOCC3)cc2)nn1C(=O)c1cccc(Cl)c1` [compound 74, 5-amino-1-(3-(chloro)phenyl)carbonyl-3-(4-(morpholin-4-yl)phenylamino)-1H-1,2,4-triazole] came in with an IC50 of 1 to 10 µM.

As to `CC(C)Oc1ccc(Nc2nc(N)n(C(=O)c3cccc(Cl)c3)n2)cc1` [compound 76, 5-amino-1-(3-(chloro)phenyl)carbonyl-3-[4-(iso-propoxy)phenylamino]-1H-1,2,4-triazole], the IC50 was above 20 µM.

Compound `CC(C)Oc1ccc(Nc2nc(N)n(C(=O)c3ccc(OCCN4CCCCC4)cc3)n2)cc1` [compound 77, 5-amino-3-[4-(iso-propoxy)phenylamino]-1-[4-[2-(piperidin-1-yl)ethoxy]phenyl)carbonyl-1H-1,2,4-triazole] returned an IC50 of 1 to 10 µM. Still for that read-out and setting: in the case of `COC(=O)c1cccc(C(=O)n2nc(Nc3ccc(OCCN4CCCCC4)cc3)nc2N)c1` [compound 79, 5-amino-1-(3-(methoxycarbonyl)phenyl)carbonyl-3-[4-[2-(piperidin-1-yl)ethoxy]phenylamino]-1H-1,2,4-triazole] it was 1 to 10 µM; in that of `COc1cccc(C(=O)n2nc(Nc3ccc(OCCN4CCCCC4)cc3)nc2N)c1` [compound 80, 5-amino-1-(3-(methoxy)phenyl)carbonyl-3-[4-[2-(piperidin-1-yl)ethoxy]phenylamino]-1H-1,2,4-triazole], below 1 µM; in that of `COc1cccc(C(=O)n2nc(Nc3ccc(N4CCOCC4)cc3)nc2N)c1` [compound 81, 5-amino-1-(3-(methoxy)phenyl)carbonyl-3-(4-(morpholin-4-yl)phenylamino)-1H-1,2,4-triazole], 1 to 10 µM. `CN(C)CCOc1ccc(Nc2nc(N)n(C(=O)c3ccc(OC(C)(C)C)cc3)n2)cc1` [compound 83, 5-amino-3-[4-[2-(dimethylamino)ethoxy]phenylamino]-1-(4-(tert-butoxy)phenyl)carbonyl-1H-1,2,4-triazole] returned an IC50 below 1 µM.

Staying with this experiment, now noted: inhibition of Axl activity, phospho-Akt in-cell Western assay; Table 1.
Turning to `CC(C)Oc1ccc(C(=O)n2nc(Nc3ccc(OCCN(C)C)cc3)nc2N)cc1` [compound 85, 5-amino-3-[4-[2-(dimethylamino)ethoxy]phenylamino]-1-(4-(iso-propoxy)phenyl)carbonyl-1H-1,2,4-triazole], the IC50 was below 1 µM.
